Measured values taken from the NIST ThermoML archive (doi:10.1016/j.jct.2019.02.026).

Conditions: Liquid, Falling or rolling sphere viscometry

CCCCCCC(=O)OC [methyl heptanoate]
Conditions | viscosity [mPa·s]
292.04 K, 30028 kPa | 1.5
292.56 K, 25040 kPa | 1.42
292.87 K, 19994 kPa | 1.35
293.58 K, 14994 kPa | 1.28
293.85 K, 9970 kPa | 1.22
294.13 K, 4967 kPa | 1.17
294.2 K, 107 kPa | 1.11
302.83 K, 29961 kPa | 1.24
302.93 K, 25017 kPa | 1.2
303.02 K, 19985 kPa | 1.15
303.05 K, 14993 kPa | 1.1
303.08 K, 10026 kPa | 1.05
303.12 K, 5011 kPa | 1
303.15 K, 102 kPa | 0.95
312.49 K, 29986 kPa | 1.09
312.57 K, 25001 kPa | 1.05
312.62 K, 20047 kPa | 1.01
312.65 K, 10009 kPa | 0.92
312.66 K, 15001 kPa | 0.97
312.77 K, 103 kPa | 0.83
312.78 K, 5010 kPa | 0.88
322.09 K, 29925 kPa | 0.97
322.17 K, 19955 kPa | 0.89
322.21 K, 15004 kPa | 0.85
322.23 K, 10018 kPa | 0.81
322.23 K, 25027 kPa | 0.93
322.26 K, 5004 kPa | 0.77
322.33 K, 96 kPa | 0.73
331.56 K, 30001 kPa | 0.87
331.67 K, 19865 kPa | 0.8
331.68 K, 25041 kPa | 0.83
331.74 K, 15035 kPa | 0.76
331.78 K, 5007 kPa | 0.69
331.78 K, 9972 kPa | 0.72
331.85 K, 99 kPa | 0.65
341.48 K, 14961 kPa | 0.69
341.67 K, 96 kPa | 0.58
341.68 K, 10141 kPa | 0.65
341.72 K, 5062 kPa | 0.62
341.73 K, 29980 kPa | 0.78
341.8 K, 25032 kPa | 0.75
341.81 K, 20048 kPa | 0.72
351.26 K, 14966 kPa | 0.61
351.27 K, 10077 kPa | 0.58
351.31 K, 19977 kPa | 0.64
351.46 K, 30010 kPa | 0.7
351.49 K, 24997 kPa | 0.67
361.24 K, 29993 kPa | 0.64
361.37 K, 20002 kPa | 0.58
361.47 K, 25022 kPa | 0.61

CCCCCCCCCCCC(=O)OC [methyl dodecanoate]
Conditions | viscosity [mPa·s]
302.7 K, 30290 kPa | 3.6
302.94 K, 20178 kPa | 3.15
303.04 K, 110 kPa | 2.53
303.04 K, 10512 kPa | 2.85
312.33 K, 30212 kPa | 2.87
312.5 K, 20279 kPa | 2.59
312.61 K, 10214 kPa | 2.33
312.63 K, 134 kPa | 2.09
331.07 K, 29762 kPa | 2.04
331.34 K, 20420 kPa | 1.86
331.51 K, 10354 kPa | 1.67
331.66 K, 132 kPa | 1.51
351.24 K, 29906 kPa | 1.53
351.57 K, 20226 kPa | 1.37
351.74 K, 10090 kPa | 1.25
351.81 K, 235 kPa | 1.14
361.57 K, 30100 kPa | 1.35
361.6 K, 19931 kPa | 1.25
361.75 K, 10141 kPa | 1.12
362.23 K, 2921 kPa | 1.05

CCCCCCCC(=O)OC [methyl octanoate]
Conditions | viscosity [mPa·s]
294.65 K, 30063 kPa | 1.81
294.79 K, 25004 kPa | 1.73
295.08 K, 19995 kPa | 1.65
295.22 K, 14978 kPa | 1.58
295.3 K, 10017 kPa | 1.5
295.48 K, 5004 kPa | 1.43
295.62 K, 102 kPa | 1.37
303.06 K, 29942 kPa | 1.58
303.1 K, 25013 kPa | 1.52
303.11 K, 20009 kPa | 1.46
303.13 K, 5014 kPa | 1.27
303.13 K, 15018 kPa | 1.39
303.14 K, 9987 kPa | 1.33
303.16 K, 98 kPa | 1.21
312.35 K, 29980 kPa | 1.37
312.4 K, 25014 kPa | 1.32
312.44 K, 10045 kPa | 1.15
312.44 K, 20035 kPa | 1.27
312.47 K, 15056 kPa | 1.21
312.49 K, 5022 kPa | 1.1
312.51 K, 101 kPa | 1.05
321.71 K, 29998 kPa | 1.21
321.89 K, 25073 kPa | 1.16
321.97 K, 9991 kPa | 1.01
322.02 K, 5045 kPa | 0.97
322.06 K, 20031 kPa | 1.11
322.09 K, 103 kPa | 0.92
322.11 K, 14992 kPa | 1.06
331.51 K, 29993 kPa | 1.08
331.6 K, 25035 kPa | 1.04
331.61 K, 20038 kPa | 1
331.62 K, 5013 kPa | 0.86
331.72 K, 15022 kPa | 0.95
331.73 K, 10033 kPa | 0.91
331.87 K, 108 kPa | 0.82
341.44 K, 29966 kPa | 0.96
341.56 K, 25026 kPa | 0.92
341.61 K, 15013 kPa | 0.84
341.62 K, 20045 kPa | 0.88
341.63 K, 4984 kPa | 0.76
341.64 K, 10011 kPa | 0.8
341.66 K, 97 kPa | 0.72
351.58 K, 103 kPa | 0.64
351.6 K, 4996 kPa | 0.68
351.62 K, 29959 kPa | 0.87
351.64 K, 10072 kPa | 0.72
351.65 K, 15006 kPa | 0.75
351.7 K, 19996 kPa | 0.79
351.78 K, 25021 kPa | 0.83
361.2 K, 9990 kPa | 0.64
361.23 K, 4990 kPa | 0.61
361.41 K, 19980 kPa | 0.72
361.44 K, 15037 kPa | 0.68
361.45 K, 103 kPa | 0.58
361.59 K, 25011 kPa | 0.74
361.74 K, 29991 kPa | 0.78

CCCCCCCCC(=O)OC [methyl nonanoate]
Conditions | viscosity [mPa·s]
297.15 K, 30034 kPa | 2.11
297.5 K, 24979 kPa | 2.01
297.81 K, 20011 kPa | 1.93
298.08 K, 14977 kPa | 1.83
298.42 K, 9955 kPa | 1.73
298.77 K, 4957 kPa | 1.65
299.19 K, 103 kPa | 1.56
302.91 K, 24994 kPa | 1.83
302.95 K, 30000 kPa | 1.91
303.01 K, 9972 kPa | 1.62
303.08 K, 4961 kPa | 1.54
303.09 K, 15047 kPa | 1.68
303.09 K, 19964 kPa | 1.76
303.1 K, 106 kPa | 1.46
312.06 K, 29961 kPa | 1.65
312.19 K, 25005 kPa | 1.57
312.27 K, 19968 kPa | 1.5
312.28 K, 9996 kPa | 1.38
312.28 K, 14963 kPa | 1.43
312.32 K, 4993 kPa | 1.32
312.38 K, 99 kPa | 1.26
321.26 K, 29949 kPa | 1.42
321.36 K, 24985 kPa | 1.36
321.49 K, 19988 kPa | 1.31
321.56 K, 10020 kPa | 1.2
321.6 K, 4982 kPa | 1.14
321.61 K, 15017 kPa | 1.25
321.64 K, 96 kPa | 1.08
330.93 K, 30013 kPa | 1.24
330.94 K, 19996 kPa | 1.14
331.13 K, 9979 kPa | 1.04
331.13 K, 25032 kPa | 1.19
331.2 K, 14998 kPa | 1.09
331.23 K, 5027 kPa | 0.99
331.26 K, 108 kPa | 0.94
340.91 K, 19959 kPa | 0.99
340.95 K, 25015 kPa | 1.04
340.96 K, 30009 kPa | 1.08
341.03 K, 4962 kPa | 0.86
341.06 K, 10010 kPa | 0.91
341.14 K, 15019 kPa | 0.94
341.21 K, 96 kPa | 0.81
350.73 K, 29961 kPa | 0.96
350.74 K, 24964 kPa | 0.92
350.81 K, 14959 kPa | 0.83
350.86 K, 20020 kPa | 0.87
350.88 K, 9984 kPa | 0.79
350.95 K, 4985 kPa | 0.75
351.04 K, 101 kPa | 0.71
360.61 K, 25005 kPa | 0.82
360.67 K, 29996 kPa | 0.85
360.71 K, 19982 kPa | 0.77
360.82 K, 9960 kPa | 0.7
360.86 K, 4959 kPa | 0.66
360.89 K, 14997 kPa | 0.74
360.96 K, 98 kPa | 0.62

CCCCCC(=O)OC [methyl hexanoate]
Conditions | viscosity [mPa·s]
292.99 K, 29973 kPa | 1.16
293.48 K, 25055 kPa | 1.11
293.98 K, 19999 kPa | 1.06
294.34 K, 15024 kPa | 1.01
294.63 K, 9980 kPa | 0.96
294.75 K, 5079 kPa | 0.92
294.86 K, 105 kPa | 0.87
302.79 K, 29963 kPa | 1.01
302.89 K, 24988 kPa | 0.97
302.98 K, 19967 kPa | 0.93
303.01 K, 15014 kPa | 0.89
303.05 K, 10031 kPa | 0.86
303.09 K, 5026 kPa | 0.81
303.12 K, 107 kPa | 0.77
312.57 K, 29951 kPa | 0.89
312.62 K, 24986 kPa | 0.85
312.69 K, 15010 kPa | 0.78
312.69 K, 20046 kPa | 0.82
312.7 K, 4988 kPa | 0.71
312.71 K, 10033 kPa | 0.75
312.74 K, 103 kPa | 0.68
321.96 K, 29975 kPa | 0.8
322.08 K, 9972 kPa | 0.67
322.12 K, 19979 kPa | 0.74
322.14 K, 24972 kPa | 0.77
322.29 K, 98 kPa | 0.61
322.29 K, 5048 kPa | 0.64
322.32 K, 15008 kPa | 0.7
331.74 K, 30010 kPa | 0.72
331.8 K, 25008 kPa | 0.69
331.83 K, 14994 kPa | 0.63
331.89 K, 9984 kPa | 0.6
331.93 K, 20001 kPa | 0.66
341.38 K, 29965 kPa | 0.64
341.39 K, 20015 kPa | 0.59
341.41 K, 25042 kPa | 0.62
